Measured values: patent US20150352108A1, “AMINO-PYRIMIDINE COMPOUNDS AS INHIBITORS OF TBK1 AND/OR IKK EPSILON” (Alzheimer's Institute of America, priority 2009, published 2015)

Experiments:
[1] = system: BLyS mRNA, normal PBMCs; test: Agonist induced BLyS mRNA in PBMCs from healthy donors (qRT-PCR); type: cell-based, human; conditions: LMW poly(I:C), serial dilutions
Text: (§1) To determine if inhibition of IKKε and/or TBK1 modulates nucleic acid agonist induced gene expression, high molecular weight poly(I:C) (MDA5 agonist) and low weight poly(I:C) (RIG-I agonist) were electroporated into human peripheral blood mononuclear cells (PBMCs) obtained from normal donors, or low molecular weight Poly(I:C) was electroporated into PBMCs from donors that have Systemic Lupus Erythematosus (SLE). Induction of IFN-α2, IFN-β, and BLyS mRNA production was monitored by qRT-PCR.
(§2) Human PBMCs were collected from healthy donors using routine laboratory procedures. PBMCs from SLE patients were purchased from Astarte Biologics (Redmond, Wash.). The PBMCs were electroporated using Nucleofector® Kit V (Lonza, Walkersville, Md.) with 0.4 ug/mL of high molecular weight poly (I:C) (InvivoGen, San Diego, Calif.) or 0.4 ug/mL low molecular weight poly (I:C) (InvivoGen, San Diego, Calif.) and seeded into wells containing serial dilutions of Example Compound 5 (0.1% final DMSO concentration). […] RNA was quantitated using Quant-iT™ RiboGreen® RNA Assay Kit (Invitrogen, Carlsbad, Calif.). Reverse transcription and real-time PCR were performed using the QuantiTect Probe RT-PCR Kit (Qiagen, Germantown, Md.) and the 7300 Real-Time PCR System (Applied Biosytems, Foster City, Calif.). […]

[2] = system: Poly(I:C)-induced innate/adaptive immune and IFNα/β-regulated genes, HFLS-RA cells; test: Genes modulated by IKKε/TBK1 inhibition in HFLS-RA cells (qRT-PCR arrays, Poly(I:C)); type: cell-based, human; conditions: 500 nM pre-treatment
Experimental: IKKε and TBK1 play important roles in modulating several innate/adaptive immune and interferon-regulated genes in response to bacterial and viral infections. To identify genes that are under the control of IKKε and TBK1 kinase activity HFLS-RA cells (Cell Applications, Inc., San Diego, Calif.) were pretreated with a compound according to Formula I (Example Compound 5) (0.5 uM), and then treated with the TLR3 agonist Poly(I:C). A focused RT-PCR array containing either 84 innate/adaptive immune-regulated or 84 IFNα/β-regulated genes were probed by qRT-PCR using mRNA isolated from the treated cells, as well as from untreated control cells, according to the following protocol.
HFLS cells isolated from patients with RA were obtained from Cell Applications, Inc. (HFLS-RA, Cell Applications, Inc., San Diego, Calif.). Cells were seeded in synoviocyte growth medium (Cell Applications, Inc., San Diego, Calif.) and allowed to grow overnight. The following day, media was replaced and cells were treated with 500 nM of Example Compound 5 (0.1% final DMSO concentration). Two hours later, cells were induced with 50 µg/mL Poly(I:C) (Sigma-Aldrich, St. Louis, Mo.). […] RNA was quantitated using Quant-iT™ RiboGreen® RNA Assay Kit (Invitrogen, Inc., Carlsbad, Calif.). […]

[3] = system: IFN-β1 mRNA, normal PBMCs; test: Agonist induced IFN-β1 mRNA in PBMCs from healthy donors (qRT-PCR); type: cell-based, human; conditions: LMW poly(I:C), serial dilutions
Text: as §1, §2

[4] = system: IFN-α2 mRNA, SLE PBMCs; test: Agonist induced IFN-α2 mRNA in PBMCs from SLE patients (qRT-PCR); type: cell-based, human; conditions: LMW poly(I:C), serial dilutions
Text: as §1, §2

[5] = system: collagen-induced arthritis; test: Collagen-induced arthritis model in mice; type: in vivo; conditions: for day symptoms of arthritis appeared: days 18-34
Experimental: Male DBA/1 mice were injected with 150 μL of […] bovine type II collagen in Freund's complete adjuvant on days 0 and 21. On days 18 through 34, 100 mg/kg or 150 mg/kg Example Compound 5 was administered orally each day. Also on days 18 through 34, all mouse paws were given a clinical score on a scale of 0-5, based upon the severity of erythema and swelling. Body weights were measured every other day beginning on day 18. Mice were euthanized on day 34, livers were weighed and paws frozen in preparation for subsequent histopathology evaluation.

[6] = system: TBK1-mediated phosphorylation of IRF7; test: In-situ TBK1-mediated phosphorylation of IRF7 in HEK293T cells transfected with IRF7 and TBK1 (Western blot); type: cell-based
Experimental: HEK293T cells were cotransfected in a 10-cm dish with IRF3 and IKKε expression plasmids using Lipofectamine 2000 (Invitrogen, Carlsbad, Calif.). The following day, cells were replated at 20,000 per well in 96-well plates and treated with test compounds (compounds according to Formula I) for 20 hours. Cell lysates were prepared and analyzed using an ELISA for phospho-Ser396 (anti-IRF3 capture antibody, Santa Cruz Biotechnology, Inc., Santa Cruz, Calif.; anti-p-Ser396 IRF3 detection antibody, Cell Signaling, Danvers, Mass.). pIRF3 levels in compound treated cells were normalized to DMSO treated cells (no compound). Cell viability was assayed in a parallel set of plates to monitor cytotoxic effects of the test compounds (CellTiter-Glo, Promega, Inc., Madison, Wis.). TBK1 activity was tested by Western blotting using a phospho-specific IRF7 antibody. Similar to above, HEK293T cells were transfected with IRF7 and TBK1 expression plasmids. Cells were seeded in 12-well plates at 150,000 per well and treated overnight with test compounds. Protein lysates were prepared and processed for Western blotting followed by detection using a phosphor-Ser477/Ser479 IRF7 antibody (BD Biosciences, San Jose, Calif.)

[7] = system: IKKε-mediated phosphorylation of IRF7; test: In-situ IKKε-mediated phosphorylation of IRF7 in HEK293T cells (Western blot); type: cell-based

liver weights ([5]; any treatment (100 and 150 mg/kg), day 34): No differences
Compound: N#Cc1cc(-c2ccnc(Nc3ccc(N4CCOCC4)cc3)n2)ccc1OC1CCOCC1 [Example 5, 5-(2-{[4-(Morpholin-4-yl)phenyl]amino}pyrimidin-4-yl)-2-(tetrahydro-2H-pyran-4-yloxy)benzaonitrile]
induction of BLyS mRNA [1]: potently inhibited | induction of genes normally induced by Poly(I:C) treatment [2]: potently inhibited | induction of IFN-β1 mRNA [3]: potently inhibited | induction of IFN-α2 mRNA [4]: potently inhibited | day symptoms were present in all mice ([5]; 100 mg/kg orally): ≤ 30 days | inhibition of AUC of clinical score as a function of time ([5]; 100 mg/kg orally): 29% | inhibition of body weight loss, day 18-34 ([5]; 100 mg/kg orally): 23% | reduction of magnitude of clinical score on day 34 ([5]; 100 mg/kg orally): 20% | day symptoms of arthritis appeared ([5]; 100 mg/kg orally each day): 23 days | day symptoms were present in all mice ([5]; 150 mg/kg orally): ≤ 30 days | inhibition of AUC of clinical score as a function of time ([5]; 150 mg/kg orally): 45% | inhibition of body weight loss, day 18-34 ([5]; 150 mg/kg orally): 42% | reduction of magnitude of clinical score on day 34 ([5]; 150 mg/kg orally): 38% | day symptoms of arthritis appeared ([5]; 150 mg/kg orally each day): 24 days | effect in reducing collagen-induced arthritis ([5]; 100 and 150 mg/kg orally): significant, dose-dependent effects | increases in erythema and swelling (cumulative clinical score) ([5]; both doses (100 and 150 mg/kg)): significantly slower | inhibition of TBK1-mediated phosphorylation of IRF7 [6]: inhibit | inhibition of IKKε-mediated phosphorylation of IRF7 [7]: inhibit
